Source: ChEMBL document CHEMBL1201862, “PubChem BioAssay data set” (2004)
Calls of active or inactive are those of the source.

Experiments:
[1] = molecular target: T1, Rac GTPase-activating protein 1 (Homo sapiens, UniProt Q9H0H5); experiment: MgcRacGAP GTPase-activating activity inhibitors, confirmation, biochemical, ADP Hunter fluorescence, primary and confirmatory (AID 624330); type: functional
T1 sequence (Q9H0H5 whole entry): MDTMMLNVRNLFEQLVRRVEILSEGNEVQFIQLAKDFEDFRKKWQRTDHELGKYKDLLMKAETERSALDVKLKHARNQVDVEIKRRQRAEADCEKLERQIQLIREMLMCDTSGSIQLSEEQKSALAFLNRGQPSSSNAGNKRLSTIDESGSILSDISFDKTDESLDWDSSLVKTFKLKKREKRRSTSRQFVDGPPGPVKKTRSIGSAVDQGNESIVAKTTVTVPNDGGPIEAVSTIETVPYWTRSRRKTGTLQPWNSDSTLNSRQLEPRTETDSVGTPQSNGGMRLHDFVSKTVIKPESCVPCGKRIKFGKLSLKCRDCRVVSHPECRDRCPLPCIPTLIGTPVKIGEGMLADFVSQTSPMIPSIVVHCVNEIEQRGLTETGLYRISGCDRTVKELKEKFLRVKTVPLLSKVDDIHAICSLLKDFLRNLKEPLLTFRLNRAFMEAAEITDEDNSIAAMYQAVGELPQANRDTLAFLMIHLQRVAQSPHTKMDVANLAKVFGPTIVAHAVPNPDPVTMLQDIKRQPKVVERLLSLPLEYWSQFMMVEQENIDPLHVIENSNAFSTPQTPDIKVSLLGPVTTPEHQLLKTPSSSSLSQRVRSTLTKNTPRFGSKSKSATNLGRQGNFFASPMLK

[2] = molecular target: FAD-linked sulfhydryl oxidase ALR (Homo sapiens, UniProt P55789); experiment: inhibitors of human ALR sulfhydryl oxidase, dose response, biochemical, H2O2 detection, luminescence, cherry-pick (AID 493248)
Sequence of FAD-linked sulfhydryl oxidase ALR (P55789 whole entry): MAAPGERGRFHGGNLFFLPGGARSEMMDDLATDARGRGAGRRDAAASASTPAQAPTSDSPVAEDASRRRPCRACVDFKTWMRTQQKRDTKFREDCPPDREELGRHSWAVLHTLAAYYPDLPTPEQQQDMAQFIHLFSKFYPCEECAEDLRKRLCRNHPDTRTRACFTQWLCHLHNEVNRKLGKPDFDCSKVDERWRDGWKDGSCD

[3] = molecular target: T2, Heat shock factor protein 1 (Mus musculus, UniProt P38532); experiment: HSF1 potentiators in luciferase reporter cells, confirmation, cell-based, NIH3T3, luminescence, dose retest (AID 435004); type: functional;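 also: stress induced by proteasome inhibitor MG132 added 30 min after compound; luciferase reporter driven by HSF1 response element in NIH3T3 cells; actives raise luminescence as potentiators of the MG132 stress response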
T2 sequence (P38532 whole entry): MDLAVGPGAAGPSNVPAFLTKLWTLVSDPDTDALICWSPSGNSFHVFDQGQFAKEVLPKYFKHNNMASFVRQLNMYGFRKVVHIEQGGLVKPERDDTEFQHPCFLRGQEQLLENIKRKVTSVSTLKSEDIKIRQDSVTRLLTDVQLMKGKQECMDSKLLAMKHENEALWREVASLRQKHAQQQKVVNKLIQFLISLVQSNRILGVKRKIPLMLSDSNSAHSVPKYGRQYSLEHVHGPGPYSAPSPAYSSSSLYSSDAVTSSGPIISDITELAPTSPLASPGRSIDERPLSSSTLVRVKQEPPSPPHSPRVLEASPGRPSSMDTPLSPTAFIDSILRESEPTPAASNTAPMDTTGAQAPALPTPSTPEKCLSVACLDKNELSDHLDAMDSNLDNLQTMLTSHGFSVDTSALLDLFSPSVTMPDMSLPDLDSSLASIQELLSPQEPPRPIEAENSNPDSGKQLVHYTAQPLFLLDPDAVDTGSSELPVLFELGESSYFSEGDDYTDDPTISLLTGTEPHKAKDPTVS

[4] = molecular target: T3, Protein skinhead-1 (Caenorhabditis elegans, UniProt P34707); type: functional
T3 sequence (P34707 whole entry): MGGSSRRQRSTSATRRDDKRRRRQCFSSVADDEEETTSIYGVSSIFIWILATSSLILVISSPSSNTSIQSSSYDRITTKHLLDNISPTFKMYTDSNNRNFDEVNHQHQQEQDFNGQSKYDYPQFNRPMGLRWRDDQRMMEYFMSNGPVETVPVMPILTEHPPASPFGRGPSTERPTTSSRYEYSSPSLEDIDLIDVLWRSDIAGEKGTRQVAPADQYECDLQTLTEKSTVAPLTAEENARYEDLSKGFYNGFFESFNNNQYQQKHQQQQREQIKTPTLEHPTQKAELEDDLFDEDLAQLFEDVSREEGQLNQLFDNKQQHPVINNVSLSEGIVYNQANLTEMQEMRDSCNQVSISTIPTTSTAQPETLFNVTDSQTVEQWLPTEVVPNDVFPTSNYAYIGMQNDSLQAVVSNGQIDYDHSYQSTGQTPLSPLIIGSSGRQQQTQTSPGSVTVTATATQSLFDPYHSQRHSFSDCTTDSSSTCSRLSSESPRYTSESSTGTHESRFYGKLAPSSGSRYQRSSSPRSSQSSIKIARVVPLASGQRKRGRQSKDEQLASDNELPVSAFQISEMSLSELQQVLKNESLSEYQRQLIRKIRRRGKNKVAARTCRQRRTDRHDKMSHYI

[5] = molecular target: Cytochrome P450 2C9 (Homo sapiens, UniProt P11712)
Sequence of Cytochrome P450 2C9 (P11712 whole entry): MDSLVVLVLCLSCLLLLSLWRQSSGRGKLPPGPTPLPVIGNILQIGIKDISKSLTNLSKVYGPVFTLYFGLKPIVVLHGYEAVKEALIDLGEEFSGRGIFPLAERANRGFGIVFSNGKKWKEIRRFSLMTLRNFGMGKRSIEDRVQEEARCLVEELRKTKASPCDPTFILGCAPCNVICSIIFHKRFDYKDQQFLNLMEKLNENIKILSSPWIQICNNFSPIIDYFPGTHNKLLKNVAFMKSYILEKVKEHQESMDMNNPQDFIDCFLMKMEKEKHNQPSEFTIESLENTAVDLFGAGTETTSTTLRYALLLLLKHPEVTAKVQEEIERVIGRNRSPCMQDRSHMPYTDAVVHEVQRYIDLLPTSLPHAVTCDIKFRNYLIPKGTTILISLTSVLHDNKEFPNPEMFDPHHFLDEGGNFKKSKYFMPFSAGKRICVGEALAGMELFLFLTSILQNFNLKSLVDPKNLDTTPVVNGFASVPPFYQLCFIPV

[6] = molecular target: Cytochrome P450 3A4 (Homo sapiens, UniProt P08684);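 also: CYP3A4 tested as one member of a cytochrome P450 panel screen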
Sequence of Cytochrome P450 3A4 (P08684 whole entry): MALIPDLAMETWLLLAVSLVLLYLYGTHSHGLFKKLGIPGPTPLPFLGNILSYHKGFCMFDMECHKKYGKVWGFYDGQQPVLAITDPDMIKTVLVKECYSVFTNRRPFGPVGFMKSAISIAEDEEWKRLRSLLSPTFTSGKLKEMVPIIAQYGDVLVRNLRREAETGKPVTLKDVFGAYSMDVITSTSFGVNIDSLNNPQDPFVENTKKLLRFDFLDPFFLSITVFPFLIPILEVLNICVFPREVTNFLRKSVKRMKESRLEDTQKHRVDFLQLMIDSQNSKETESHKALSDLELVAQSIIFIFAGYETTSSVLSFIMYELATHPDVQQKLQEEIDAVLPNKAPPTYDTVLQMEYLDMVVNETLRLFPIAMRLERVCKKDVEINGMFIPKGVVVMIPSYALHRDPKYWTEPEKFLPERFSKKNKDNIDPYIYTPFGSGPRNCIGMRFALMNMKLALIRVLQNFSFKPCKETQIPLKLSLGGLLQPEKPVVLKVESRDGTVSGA

[7] = molecular target: T4, Polyadenylate-binding protein 1 (Homo sapiens, UniProt P11940); experiment: PABP1 MLLE–PAM2 binding inhibitor potency, dose response, biochemical, fluorescence polarization, FITC-PAM2 peptide (AID 602259); type: functional; conditions: read-out: IC50_Mean
T4 sequence (P11940 whole entry): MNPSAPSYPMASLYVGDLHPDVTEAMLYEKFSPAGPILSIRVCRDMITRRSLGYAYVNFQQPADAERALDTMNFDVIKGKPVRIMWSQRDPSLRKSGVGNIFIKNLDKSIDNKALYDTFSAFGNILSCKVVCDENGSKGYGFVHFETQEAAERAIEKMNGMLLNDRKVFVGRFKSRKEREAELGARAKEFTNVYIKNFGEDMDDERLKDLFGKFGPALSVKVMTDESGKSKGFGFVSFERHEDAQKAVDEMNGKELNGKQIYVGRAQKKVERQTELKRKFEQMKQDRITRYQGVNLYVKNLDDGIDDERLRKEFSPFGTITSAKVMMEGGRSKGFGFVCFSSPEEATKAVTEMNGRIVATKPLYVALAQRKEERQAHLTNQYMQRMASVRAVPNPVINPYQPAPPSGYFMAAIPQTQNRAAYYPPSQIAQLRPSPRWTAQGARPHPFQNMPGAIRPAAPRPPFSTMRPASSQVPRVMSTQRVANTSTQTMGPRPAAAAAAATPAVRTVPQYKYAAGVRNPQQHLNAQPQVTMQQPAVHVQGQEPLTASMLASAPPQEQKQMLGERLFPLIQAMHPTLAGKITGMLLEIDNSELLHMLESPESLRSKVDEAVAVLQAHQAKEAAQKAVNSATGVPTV

[8] = inhibitors of SNCA 5'UTR-driven reporter translation, confirmation, H4 neuroglioma cells, luminescence (AID 1988); type: functional, cell-based
[9] = inhibitors of firefly luciferase expression or activity, dose response, H4 neuroglioma cells, luminescence (AID 1990); type: functional, cell-based
[10] = Luminescence Cell-Based Dose Response HTS to Identify Inhibitors of 5'UTR Stem-Loop Driven Prion Protein mRNA Translation in H4 Neuroglioblastoma Cells. [Related pubchem assays: 1827 (Project Summary), 1813 (Primary HTS)]; type: functional
[11] = molecular target: T4, Polyadenylate-binding protein 1; experiment: PABP1 MLLE–PAM2 interaction inhibitors, dose response, miRNA deadenylation inhibitor project, biochemical, fluorescence polarization, Cy5-PAM2 peptide, secondary (AID 602260); type: functional; conditions: read-out: IC50_Mean
[12] = molecular target: T5, Ubiquitin-conjugating enzyme E2 N (Homo sapiens, UniProt P61088); type: functional;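 also: Dose-response confirmation in a TR-FRET assay detecting UBC13-driven polyubiquitin chain formation, inhibition measured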
T5 sequence (P61088 whole entry): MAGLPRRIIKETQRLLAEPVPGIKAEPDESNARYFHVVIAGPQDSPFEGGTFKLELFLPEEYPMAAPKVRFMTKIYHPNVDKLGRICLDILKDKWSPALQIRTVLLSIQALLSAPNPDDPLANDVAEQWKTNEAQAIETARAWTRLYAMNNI

[13] = microbe, parasite or virus in culture; type: functional; conditions: Mycobacterium tuberculosis
[14] = molecular target: T2, Heat shock factor protein 1; experiment: inhibition of MG132-induced HSE-luciferase signal, confirmation, cell-based, NIH3T3, luminescence, dose retest (AID 2382); type: functional;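 also: NIH3T3 fibroblasts with HSF1-driven luciferase reporter stressed by proteasome inhibitor MG132; luminescence from HSF1-driven luciferase expression after 8 hours of MG132 stress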
[15] = molecular target: T6, Zinc finger protein mex-5 (Caenorhabditis elegans, UniProt Q9XUB2); experiment: MEX-5/TCR-2 RNA interaction inhibitors, dose response, biochemical, C. elegans, fluorescence polarization (AID 1960)
T6 sequence (Q9XUB2 whole entry): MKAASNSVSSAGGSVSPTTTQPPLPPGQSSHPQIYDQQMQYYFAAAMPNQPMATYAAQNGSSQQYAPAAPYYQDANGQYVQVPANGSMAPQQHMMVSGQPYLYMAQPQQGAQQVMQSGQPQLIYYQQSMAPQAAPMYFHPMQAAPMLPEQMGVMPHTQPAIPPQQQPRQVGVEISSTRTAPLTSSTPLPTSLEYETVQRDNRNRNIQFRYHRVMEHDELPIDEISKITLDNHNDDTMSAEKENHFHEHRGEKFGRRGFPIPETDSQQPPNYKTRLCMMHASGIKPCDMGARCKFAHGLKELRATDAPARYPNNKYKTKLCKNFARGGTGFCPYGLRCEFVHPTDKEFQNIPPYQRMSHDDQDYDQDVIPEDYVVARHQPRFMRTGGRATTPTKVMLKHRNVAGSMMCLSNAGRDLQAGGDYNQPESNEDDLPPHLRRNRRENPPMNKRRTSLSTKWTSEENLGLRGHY

[16] = molecular target: T7, RNA-binding protein pos-1 (Caenorhabditis elegans, UniProt G5EF15); experiment: inhibitors of POS-1/mex-3 RNA binding, dose response, biochemical, fluorescence polarization (AID 1964);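 also: purified POS-1 fused to maltose binding protein made in E. coli; potency of compounds blocking POS-1 binding to fluorescent RNA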
T7 sequence (G5EF15 whole entry): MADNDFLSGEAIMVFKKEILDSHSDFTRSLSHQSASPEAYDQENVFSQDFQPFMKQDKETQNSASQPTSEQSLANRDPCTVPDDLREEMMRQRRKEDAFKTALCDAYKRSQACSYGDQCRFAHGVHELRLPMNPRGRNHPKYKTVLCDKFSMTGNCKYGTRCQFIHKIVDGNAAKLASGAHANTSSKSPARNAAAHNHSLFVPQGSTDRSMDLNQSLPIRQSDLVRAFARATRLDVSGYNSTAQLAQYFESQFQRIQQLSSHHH

COc1cc(/C=N/NC(=O)c2cc3ccccc3[nH]2)ccc1O
IC50 [1]: 17.8 µM (active)
AC50 [2]: 0.393 µM (active)

COc1ccc(C)cc1-n1c(=O)c2ccccc2c2ccccc2c1=O
EC50 [3]: 11.7 µM (active)

COc1ccc(/C=C(\NC(=O)c2ccccc2)C(=O)N/N=C/c2sccc2C)cc1
EC50 [3]: > 260 µM (inactive)

Nc1cc(O)nc(SCC(=O)Nc2ccc(S(=O)(=O)N3CCOCC3)cc2)n1
IC50 [4]: > 100 µM (inactive)
AC50 [5]: 20 µM (inconclusive)
AC50 [6]: 28.2 µM (inconclusive)

CC1CCN(c2ccccc2NC(=S)NC(=O)C(C)(C)C)CC1
IC50 [7]: > 66 µM (inactive)
EC50 [8]: > 120 µM (not active)
EC50 [9]: 16 µM (active)
EC50 [10]: > 120 µM (not active)
IC50 [11]: > 66 µM (inactive)

NC(=S)N=Nc1c(O)[nH]c2c(Cl)cc(Cl)cc12
IC50 [7]: > 66 µM (inactive)
IC50 [11]: > 66 µM (inactive)

Cc1ccccc1C(=O)OC1OC(O)=C(Cl)/C1=N\c1ccccc1 (stereo not drawn)
IC50 [12]: > 20 µM (inactive)

C#CCOCCOCCOCCNc1nc(N2CCN(C(=O)[C@H](CO)n3cc([C@@H](N)C(C)C)nn3)CC2)nc(N2CCN(C(=O)[C@H](CCCCN)n3cc([C@@H](N)[C@H](C)CC)nn3)CC2)n1
IC50 [12]: > 20 µM (inactive)

CCCNc1cc(S)nc(N)n1
IC50 [7]: > 66 µM (inactive)
IC50 [11]: > 66 µM (inactive)

Clc1ccc(Nc2ccc(-n3ccnc3)nn2)cc1Cl
IC50 [4]: > 100 µM (inactive)
CC50 [13]: > 40 µM (active)

CCC1CCCCN1CCCNC(=O)C1CCN(c2ncnc3c2nc2n3CCCCC2)CC1 (stereo not drawn)
IC50 [12]: > 20 µM (inactive)

Nc1nc(Cl)nc2ccc(Br)cc12
IC50 [12]: > 20 µM (inactive)
EC50 [14]: 5.71 µM (active)

CSc1ccc(CCNC(=O)c2nn(C)c3c2CS(=O)(=O)c2ccccc2-3)cc1
EC50 [3]: > 260 µM (inactive)

NC(S)=NN=C1c2cc(S(=O)(=O)N3CCOCC3)ccc2-c2ccc(S(=O)(=O)N3CCOCC3)cc21
IC50 [7]: > 66 µM (inactive)
IC50 [11]: > 66 µM (inactive)

CCOC(=O)/C(C#N)=C/c1cn(CCC(=O)O)nc1-c1ccc(Cl)cc1
EC50 [3]: > 260 µM (inactive)

CCOC(=O)c1c(N/C=C2/C(=O)NC(=O)N(c3cccc(C)c3)C2=O)sc2c1CCCC2
EC50 [15]: > 300 µM (not active)
EC50 [16]: > 300 µM (not active)

Cc1c(C(=O)NCc2ccc3c(c2)cc(C)n3C)cccc1[N+](=O)[O-]
IC50 [7]: > 66 µM (inactive)
IC50 [11]: > 66 µM (inactive)

Cc1cccc(-n2c(N)cc(=O)nc2SCC(=O)Nc2cc(C)on2)c1
IC50 [7]: > 66 µM (inactive)
IC50 [11]: > 66 µM (inactive)

c1ccc(CN2CCN(Cc3ccc4ccccc4c3)CC2)cc1
IC50 [1]: 123 µM (active)

CCN(CC)S(=O)(=O)c1cccc(-c2nnc(S)n2/N=C/c2ccc(OC(F)F)cc2)c1
IC50 [1]: 147 µM (active)

O=C(c1ccccc1)c1ccc(C(=O)N2CCN(c3ccc(O)cc3)CC2)cc1
IC50 [1]: 34 µM (active)

Cc1ccc2oc(C(=O)N3CCC(O)(c4cccc(C(F)(F)F)c4)CC3)c(C)c2c1
EC50 [3]: 54.9 µM (active)

COc1cccc(-c2nc(CSCC(=O)NCC3CCCO3)c(C)o2)c1 (stereo not drawn)
IC50 [7]: > 66 µM (inactive)
IC50 [11]: > 66 µM (inactive)

c1ccc(-c2ccccc2OCCOCCN2CCOCC2)cc1
IC50 [1]: 58.9 µM (active)

Cc1cccn2c(=O)c3cc(C(=O)N(C)C)n(C)c3nc12
IC50 [7]: 39.3 µM (inactive)
IC50 [11]: > 66 µM (inactive)

CCOc1cc(/C=N/n2c(C)nnc2C)ccc1O
IC50 [1]: 103 µM (active)

CN(C)c1ccc(NC(=O)c2ccc3nsnc3c2)cc1
IC50 [1]: 65.4 µM (active)

CC1Cc2ccccc2N1C(=O)C1CCN(S(=O)(=O)Cc2ccccc2)CC1 (stereo not drawn)
IC50 [4]: > 100 µM (inactive)

CCOC(=O)C1=C(c2ccccc2)NC(=O)NC1c1cc(Br)c(O)c(OC)c1 (stereo not drawn)
EC50 [3]: > 260 µM (inactive)

CCc1cc(/C(Cc2csc(C)n2)=N/O)c(O)cc1O
IC50 [1]: 28.3 µM (active)

Cc1ccc(/C=N/NC(=O)c2cccc(S(=O)(=O)Nc3ccccc3Cl)c2)o1
EC50 [3]: > 260 µM (inactive)

CCC(Sc1nc2nnc(C)c-2c(N)n1-c1ccc(C)c(Cl)c1)C(=O)N1CCOCC1 (stereo not drawn)
EC50 [3]: > 260 µM (inactive)

Fc1ccc(-c2nnc(-c3ccc(F)cc3)o2)cc1
IC50 [4]: > 100 µM (inactive)

COc1cc(-c2cc(C(=O)Nc3ccc(S(N)(=O)=O)cc3)c3ccccc3n2)cc(OC)c1OC
IC50 [12]: > 20 µM (inactive)

Clc1ccc(CSc2ncn(-c3ccccc3)n2)cc1
IC50 [4]: 10.3 µM (active)

COC(=O)c1ccc(=O)n(Cc2ccco2)c1
IC50 [4]: > 100 µM (inactive)
